# Source: patent US6737383B1, “Herbicidal oxadiazolidines” (priority 1999, dated 2004)
# Tests used:
# chickweed = assay: Test E chickweed; format: in vivo, Stellaria media; settings: Postemergence
# In short: (§1)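 Greenhouse test: compounds in non-phytotoxic solvent with surfactant; for postemergence, sprayed on plants at 1- to 4-leaf stage grown in 60:40 sandy loam/potting mix. Injury rated visually against untreated controls after about 21 to 28 days.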
# annual bluegrass = assay: Test E annual bluegrass; format: in vivo, Poa annua; settings: Postemergence
# In short: as §1
# galium [1] = assay: Test E galium; format: in vivo, Galium aparine; settings: Preemergence
# redroot pigweed [2] = assay: Test E redroot pigweed; format: in vivo, Amaranthus retroflexus; settings: Postemergence
# In short: as §1
# galium [3] = assay: Test E galium; format: in vivo, Galium aparine; settings: Postemergence
# In short: as §1
# green foxtail = assay: Test E green foxtail; format: in vivo, Setaria viridis; settings: Postemergence
# In short: as §1
# spring wheat = assay: Test E spring wheat; format: in vivo, Triticum aestivum; settings: Postemergence
# In short: as §1
# kochia [4] = assay: Test E kochia; format: in vivo, Kochia scoparia; settings: Preemergence
# wild buckwheat [5] = assay: Test E wild buckwheat; format: in vivo, Polygonum convolvulus; settings: Preemergence
# spring barley [6] = assay: Test E spring barley; format: in vivo, Hordeum vulgare; settings: Postemergence
# In short: as §1
# sunflower = assay: Test E sunflower; format: in vivo, Helianthus annuus; settings: Preemergence
# deadnettle = assay: Test E deadnettle; format: in vivo, Lamium amplexicaule; settings: Postemergence
# In short: as §1
# scentless chamomile = assay: Test E scentless chamomile; format: in vivo, Matricaria inodora; settings: Postemergence
# In short: as §1
# windgrass = assay: Test E windgrass; format: in vivo, Apera spica-venti; settings: Preemergence
# lambsquarters = assay: Test E lambsquarters; format: in vivo, Chenopodium album; settings: Preemergence
# wild oat = assay: Test E wild oat; format: in vivo, Avena fatua; settings: Postemergence
# In short: as §1
# littleseed canarygrass = assay: Test E littleseed canarygrass; format: in vivo, Phalaris minor; settings: Postemergence
# In short: as §1
# redroot pigweed [7] = assay: Test E redroot pigweed; format: in vivo, Amaranthus retroflexus; settings: Preemergence
# winter barley = assay: Test E winter barley; format: in vivo, Hordeum vulgare; settings: Postemergence
# In short: as §1
# jointed goatgrass = assay: Test E jointed goatgrass; format: in vivo, Aegilops cylindrica; settings: Preemergence
# wild buckwheat [8] = assay: Test E wild buckwheat; format: in vivo, Polygonum convolvulus; settings: Postemergence
# In short: as §1
# ivyleaf speedwell = assay: Test E postemergence ivyleaf speedwell; format: in vivo, Veronica hederaefolia
# In short: as §1
# kochia [9] = assay: Test E kochia; format: in vivo, Kochia scoparia; settings: Postemergence
# In short: as §1
# Italian ryegrass = assay: Test E Italian ryegrass; format: in vivo, Lolium multiflorum; settings: Postemergence
# In short: as §1
# spring barley [10] = assay: Test E spring barley; format: in vivo, Hordeum vulgare; settings: Preemergence
# downy brome = assay: Test E downy brome; format: in vivo, Bromus tectorum; settings: Preemergence
# [11] = Rate 250 g/ha, 0 to 100 scale (0 no effect, 100 complete control)
# [12] = Rate 62 g/ha, 0 to 100 scale, 0 no effect, 100 complete control
# [13] = Rate 125 g/ha, 0 to 100 scale (0 no effect, 100 complete control)
compound,measurement,setting,value
CCn1c(=O)on(C(=O)N(c2ccc(Cl)cc2)C(C)C)c1=O [Compound 108],"Plant response rating, Chickweed","chickweed; Rate 62 g/ha, 0 to 100 scale",10
same,"Plant response rating, Chickweed","chickweed; Rate 125 g/ha, 0 to 100 scale",0
same,"Plant response rating, Chickweed",chickweed; [11],0
same,"Plant response rating, Annual bluegras","annual bluegrass; Rate 62 g/ha, 0 to 100 scale",0
same,"Plant response rating, Annual bluegras","annual bluegrass; Rate 125 g/ha, 0 to 100 scale",15
same,"Plant response rating, Annual bluegras",annual bluegrass; [11],50
same,"Plant response rating, Galium",galium [1]; [12],95
same,"Plant response rating, Galium",galium [1]; [13],50
same,"Plant response rating, Galium","galium [1]; Rate 250 g/ha, 0 to 100 scale",95
same,"Plant response rating, Redroot pigweed","redroot pigweed [2]; Rate 62 g/ha, 0 to 100 scale",5
same,"Plant response rating, Redroot pigweed","redroot pigweed [2]; Rate 125 g/ha, 0 to 100 scale",20
same,"Plant response rating, Redroot pigweed",redroot pigweed [2]; [11],30
same,"Plant response rating, Galium","galium [3]; Rate 62 g/ha, 0 to 100 scale",0
same,"Plant response rating, Galium","galium [3]; Rate 125 g/ha, 0 to 100 scale",10
same,"Plant response rating, Galium",galium [3]; [11],50
same,"Plant response rating, Green foxtail","green foxtail; Rate 62 g/ha, 0 to 100 scale",10
same,"Plant response rating, Green foxtail","green foxtail; Rate 125 g/ha, 0 to 100 scale",15
same,"Plant response rating, Green foxtail",green foxtail; [11],75
same,"Plant response rating, Spring Wheat","spring wheat; Rate 62 g/ha, 0 to 100 scale",10
same,"Plant response rating, Spring Wheat","spring wheat; Rate 125 g/ha, 0 to 100 scale",10
same,"Plant response rating, Spring Wheat",spring wheat; [11],20
same,"Plant response rating, Kochia",kochia [4]; [12],50
same,"Plant response rating, Kochia",kochia [4]; [13],50
same,"Plant response rating, Kochia","kochia [4]; Rate 250 g/ha, 0 to 100 scale",40
same,"Plant response rating, Wild buckwheat",wild buckwheat [5]; [12],60
same,"Plant response rating, Wild buckwheat",wild buckwheat [5]; [13],100
same,"Plant response rating, Wild buckwheat","wild buckwheat [5]; Rate 250 g/ha, 0 to 100 scale",80
same,"Plant response rating, Spring Barley","spring barley [6]; Rate 62 g/ha, 0 to 100 scale",10
same,"Plant response rating, Spring Barley","spring barley [6]; Rate 125 g/ha, 0 to 100 scale",20
same,"Plant response rating, Spring Barley",spring barley [6]; [11],25
same,"Plant response rating, Sunflower",sunflower; [12],0
same,"Plant response rating, Sunflower",sunflower; [13],0
same,"Plant response rating, Sunflower","sunflower; Rate 250 g/ha, 0 to 100 scale",10
same,"Plant response rating, Deadnettle","deadnettle; Rate 62 g/ha, 0 to 100 scale",10
same,"Plant response rating, Deadnettle","deadnettle; Rate 125 g/ha, 0 to 100 scale",20
same,"Plant response rating, Deadnettle",deadnettle; [11],30
same,"Plant response rating, Scentless chamo","scentless chamomile; Rate 62 g/ha, 0 to 100 scale",10
same,"Plant response rating, Scentless chamo","scentless chamomile; Rate 125 g/ha, 0 to 100 scale",0
same,"Plant response rating, Scentless chamo",scentless chamomile; [11],10
same,"Plant response rating, Windgrass",windgrass; [12],100
same,"Plant response rating, Windgrass",windgrass; [13],100
same,"Plant response rating, Lambsquarters",lambsquarters; [12],80
same,"Plant response rating, Lambsquarters",lambsquarters; [13],100
same,"Plant response rating, Lambsquarters","lambsquarters; Rate 250 g/ha, 0 to 100 scale",90
same,"Plant response rating, Wild oat","wild oat; Rate 62 g/ha, 0 to 100 scale",0
same,"Plant response rating, Wild oat","wild oat; Rate 125 g/ha, 0 to 100 scale",5
same,"Plant response rating, Wild oat",wild oat; [11],20
same,"Plant response rating, LS canarygrass","littleseed canarygrass; Rate 62 g/ha, 0 to 100 scale",0
same,"Plant response rating, LS canarygrass","littleseed canarygrass; Rate 125 g/ha, 0 to 100 scale",20
same,"Plant response rating, LS canarygrass",littleseed canarygrass; [11],70
same,"Plant response rating, Redroot pigweed",redroot pigweed [7]; [12],70
same,"Plant response rating, Redroot pigweed",redroot pigweed [7]; [13],90
same,"Plant response rating, Redroot pigweed","redroot pigweed [7]; Rate 250 g/ha, 0 to 100 scale",90
same,"Plant response rating, Barley (winter)","winter barley; Rate 62 g/ha, 0 to 100 scale",10
same,"Plant response rating, Barley (winter)","winter barley; Rate 125 g/ha, 0 to 100 scale",10
same,"Plant response rating, Barley (winter)",winter barley; [11],15
same,"Plant response rating, Jointed goatgra",jointed goatgrass; [12],30
same,"Plant response rating, Jointed goatgra",jointed goatgrass; [13],40
same,"Plant response rating, Jointed goatgra","jointed goatgrass; Rate 250 g/ha, 0 to 100 scale",60
same,"Plant response rating, Wild buckwheat","wild buckwheat [8]; Rate 62 g/ha, 0 to 100 scale",0
same,"Plant response rating, Wild buckwheat","wild buckwheat [8]; Rate 125 g/ha, 0 to 100 scale",20
same,"Plant response rating, Wild buckwheat",wild buckwheat [8]; [11],10
same,"Plant response rating, Veronica hedera","ivyleaf speedwell; Rate 62 g/ha, 0 to 100 scale",0
same,"Plant response rating, Veronica hedera","ivyleaf speedwell; Rate 125 g/ha, 0 to 100 scale",10
same,"Plant response rating, Veronica hedera",ivyleaf speedwell; [11],40
same,"Plant response rating, Kochia","kochia [9]; Rate 62 g/ha, 0 to 100 scale",20
same,"Plant response rating, Kochia","kochia [9]; Rate 125 g/ha, 0 to 100 scale",40
same,"Plant response rating, Kochia",kochia [9]; [11],30
same,"Plant response rating, I. Ryegrass","Italian ryegrass; Rate 62 g/ha, 0 to 100 scale",20
same,"Plant response rating, I. Ryegrass","Italian ryegrass; Rate 125 g/ha, 0 to 100 scale",5
same,"Plant response rating, I. Ryegrass",Italian ryegrass; [11],40
same,"Plant response rating, Spring Barley",spring barley [10]; [12],10
same,"Plant response rating, Spring Barley",spring barley [10]; [13],10
same,"Plant response rating, Spring Barley","spring barley [10]; Rate 250 g/ha, 0 to 100 scale",5
same,"Plant response rating, Downy brome",downy brome; [12],30
same,"Plant response rating, Downy brome",downy brome; [13],30
same,"Plant response rating, Downy brome","downy brome; Rate 250 g/ha, 0 to 100 scale",70
